{
  "source": "patent US5496809A",
  "about": "“Stable solutions of rebeccamycin analog” (priority 1989, dated 1996)",
  "key": {"[1]": {"experiment": "Solubility in water", "format": "physicochemical", "description": "The compound is referred to in Kaneko et al U.S. Pat. No. 4,785,085 as 6-(2-diethylaminoethyl)rebeccmycin and its preparation is described in Example 1 of the patent and its effectiveness to inhibit growth of tumors in experimental animal systems is shown in Table 3 of the patent. […] Instead, it forms a suspension.\nBesides being stable at room temperature, the solutions herein have enhanced solubility at low temperatures, e.g., refrigeration temperatures or cold conditions encountered during shipping or storage, etc.\nPharmaceutically acceptable acid components (c) which meet this solubility criterion include, for example, L-(+)-tartaric, D,L-malic, L-(-)-malic, citric, L-(+)-lactic, lactobionic, methanesulfonic, phosphoric, pyroglutamic, succinic and sulfuric acids. The most preferred acid of these is L-(+)-tartaric acid."}, "[2]": {"test_system": "transplanted mouse leukemia P-338", "conditions": "for % T/C (median survival time) / MST (median survival time): IV, 5 daily injections; for AWC (average weight change at Day 5): mouse, in vivo, iv", "excerpt": "(§1) The screening procedures involved administration of test compound intraperitonially (IP) to CDF1 female mice (18 to 22 grams) infected with 1×10^6 ascites cells intraperitonially, and intravenously (IV) to CDF1 female mice (18 to 22 Grams) infected with 1×10 ascites cells intravenously. Drug therapy was started on Day 1 (date of implant) and consisted of 1 injection per day for 5 successive days. […] Mitomycin C is included for comparison purposes."}, "[3]": {"test_system": "transplanted mouse leukemia P-338", "excerpt": "as §1"}, "[4]": {"experiment": "Long term physical stability of aqueous solutions at room temperature", "format": "physicochemical", "conditions": "one molar equivalent of acid; period less than 2 years at room temperature", "description": "These unexpected physical instabilities include gelling, precipitation, cloudiness, and formation of liquid crystalline phases which render solutions of the crystalline salts unsuitable for practical use as, or for dilution with water to provide, injectable solutions."}, "[5]": {"conditions": "IP, 4.8 mg/kg/inj, 5 daily injections"}},
  "note": "Counter-ions that a name gives are not always drawn. Like-named read-outs stand apart in the source and are kept apart here.",
  "data": [
    {"smiles": "CCN(CC)CCN1C(=O)c2c(c3c4cccc(Cl)c4n([C@@H]4O[C@H](CO)[C@@H](OC)[C@H](O)[C@H]4O)c3c3[nH]c4c(Cl)cccc4c23)C1=O", "values": [
      {"measurement": "solubility in water (in words)", "setting": "[1]; added to water to form an aqueous injectable solution", "value": "not sufficiently soluble in water"}
    ]},
    {"smiles": "CO[C@@]12[C@H](COC(N)=O)C3=C(C(=O)C(C)=C(N)C3=O)N1C[C@@H]1N[C@@H]12", "note": "[Mitomycin C]", "values": [
      {"measurement": "% T/C (median survival time)", "setting": "[2]; 1.6 mg/kg/inj", "value": 127, "unit": "%"},
      {"measurement": "MST (median survival time)", "setting": "[2]; 1.6 mg/kg/inj", "value": 9.5, "unit": "days"},
      {"measurement": "% T/C (median survival time)", "setting": "[2]; 4.8 mg/kg/inj", "value": 160, "unit": "%"},
      {"measurement": "MST (median survival time)", "setting": "[2]; 4.8 mg/kg/inj", "value": 12.0, "unit": "days"},
      {"measurement": "AWC (average weight change at Day 5)", "setting": "[2]; 1.6 mg/kg", "value": 0.4, "unit": "Grams"},
      {"measurement": "AWC (average weight change at Day 5)", "setting": "[2]; 4.8 mg/kg", "value": -0.1, "unit": "Grams"},
      {"measurement": "% T/C (median survival time)", "setting": "[3]; [5]", "value": 205, "unit": "%"},
      {"measurement": "MST (median survival time)", "setting": "[3]; [5]", "value": 20.5, "unit": "days"},
      {"measurement": "AWC (average weight change at Day 5)", "setting": "[3]; mouse, in vivo, ip, 4.8 mg/kg", "value": -0.6, "unit": "Grams"}
    ]},
    {"smiles": "CCN(CC)CCN1C(=O)c2c(c3c4cccc(Cl)c4n([C@@H]4O[C@H](CO)[C@@H](OC)[C@H](O)[C@H]4O)c3c3[nH]c4c(Cl)cccc4c23)C1=O", "note": "[hydrochloride salt]", "values": [
      {"measurement": "physical instability / shelf stability of solutions of acid addition salts (in words)", "setting": "[4]", "value": "do not form aqueous solutions which are sufficiently shelf stable"}
    ]},
    {"smiles": "CCN(CC)CCN1C(=O)c2c(c3c4cccc(Cl)c4n([C@@H]4O[C@H](CO)[C@@H](OC)[C@H](O)[C@H]4O)c3c3[nH]c4c(Cl)cccc4c23)C1=O", "note": "[succinic]", "values": [
      {"measurement": "solubility", "setting": "[1]; water, salt formed from free base and a molar equivalent of acid, room temperature, read-out: solubility of acid addition salt in water", "value": "> 25", "unit": "mg/mL"}
    ]}
  ]
}
